Reference: patent publication US12173018B2, “Penicillin-binding protein inhibitors” (priority 2018, dated 2024)
Converted amounts (≈) assume the structure as drawn. Where a name gives a salt, the structure may show the parent alone. Read-outs that look alike come from different tables or passages of the source.

Assays:
[1] = target: E. coli PBP1b (Escherichia coli (strain K12), UniProt P02919); test: Radioligand competition binding assay with 14C-labeled boronic acid probe, PBP1b
Source text: To determine the ability of boronic acid-based test PBP inhibitors to bind Penicillin Binding Proteins (PBPs), a radio-labelled boronic acid PBP inhibitor
[drawing 751] was used in competition binding assays to determine boronic acid PBP inhibitor binding to PBP1a or PBP1b from Escherichia coli. PBP1a and PBP1b were purified as described previously (Bertsche, U.; et al., J. Biol. Chem. 2005, 280 (45), 38096-38101; Born, P.; et al., J. Biol. Chem. 2006. 281 (37), 26985-26993). To establish assay conditions for competition binding, an enzyme titration/saturation binding experiment was performed. Saturation binding was performed in a buffer comprised of 20 mM Tris (pH 7.5), 500 mM NaCl and 0.1% (v/v) TritonX-100, with PBP1a/PBP1b at a final concentration of 0.1 μM and Compound A at final concentrations ranging from 0-100 μM. Mixtures were incubated for 60 minutes, then applied to Zeba Spin Desalting columns or plates (ThermoFisher Scientific) and centrifuged at 1000-1500×g for 2 minutes. The flow through, containing PBP bound with Compound A, was recovered and 100 μL mixed with 5 mL of UltimaGold liquid scintillation cocktail (Perkin Elmer), and the radioactivity counted using a Beckman Coulter LS 6500 Multipurpose scintillation counter. PBP binding of Compound A approached saturation at 20 μM of ^14C-labeled probe. The competition binding assay was validated using the beta-lactam ampicillin, with Compound A at a final concentration of 20 μM, PBP1a/PBP1b at a final concentration of 0.1 μM. PBP1a/PBP1b was incubated with ampicillin in a 96-well microplate for 60 minutes, then Compound A was added and the mixtures incubated for an additional 60 minutes. The mixtures were then applied to Zeba Spin desalting plates and centrifuged at 1000×g for 2 minutes. The flow through was recovered and 100 μl mixed with 5 ml of UltimaGold liquid scintillation cocktail and the radioactivity counted. […] Binding assays with boronic acid PBP inhibitors were performed in an identical fashion. The potency of boronic acid PBP inhibitors was reported as the EC50 value.

[2] = target: E. coli PBP3 (Escherichia coli (strain K12), UniProt P0AD68); test: E. coli PBP3 Bocillin-FL fluorescence polarization competition binding assay
E. coli PBP3, sequence (P0AD68 whole entry): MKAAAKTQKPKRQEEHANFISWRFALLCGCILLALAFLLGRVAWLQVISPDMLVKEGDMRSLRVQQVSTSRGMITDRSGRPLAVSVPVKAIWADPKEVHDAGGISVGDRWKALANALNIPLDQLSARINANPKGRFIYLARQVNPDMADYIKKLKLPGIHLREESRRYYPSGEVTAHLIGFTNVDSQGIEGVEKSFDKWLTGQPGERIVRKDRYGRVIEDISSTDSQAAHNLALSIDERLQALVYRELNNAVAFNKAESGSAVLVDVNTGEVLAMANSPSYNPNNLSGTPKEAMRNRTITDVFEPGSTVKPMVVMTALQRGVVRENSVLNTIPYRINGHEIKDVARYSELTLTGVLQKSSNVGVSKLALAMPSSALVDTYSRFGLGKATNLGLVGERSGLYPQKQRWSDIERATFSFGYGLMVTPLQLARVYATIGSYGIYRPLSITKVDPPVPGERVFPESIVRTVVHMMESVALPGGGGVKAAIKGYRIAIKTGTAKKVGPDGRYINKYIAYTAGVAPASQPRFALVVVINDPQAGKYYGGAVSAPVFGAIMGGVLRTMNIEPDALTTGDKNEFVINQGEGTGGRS
In short: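 Competition against 0.1 μM Bocillin-FL for binding to 1.5 μM purified protein, read by fluorescence polarization for 60 min. Compounds tested from 0 to 1000 μM; EC50 taken as the concentration reducing probe binding.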

[3] = test system: engineered strain of Escherichia coli harboring CTX-M15; test: microbe, parasite or virus in culture; assay type: cell-based; settings: Escherichia coli, read-out: Microbiological Activity (MIC in mg/L), E. coli DH5α/pLBII-CTX-M15, engineered strain producing CTX-M15
[4] = fluorescence polarization competition binding with Bocillin-FL, read-out: E. coli K12 PBP3 Potency

E. coli PBP1b, sequence (P02919 whole entry): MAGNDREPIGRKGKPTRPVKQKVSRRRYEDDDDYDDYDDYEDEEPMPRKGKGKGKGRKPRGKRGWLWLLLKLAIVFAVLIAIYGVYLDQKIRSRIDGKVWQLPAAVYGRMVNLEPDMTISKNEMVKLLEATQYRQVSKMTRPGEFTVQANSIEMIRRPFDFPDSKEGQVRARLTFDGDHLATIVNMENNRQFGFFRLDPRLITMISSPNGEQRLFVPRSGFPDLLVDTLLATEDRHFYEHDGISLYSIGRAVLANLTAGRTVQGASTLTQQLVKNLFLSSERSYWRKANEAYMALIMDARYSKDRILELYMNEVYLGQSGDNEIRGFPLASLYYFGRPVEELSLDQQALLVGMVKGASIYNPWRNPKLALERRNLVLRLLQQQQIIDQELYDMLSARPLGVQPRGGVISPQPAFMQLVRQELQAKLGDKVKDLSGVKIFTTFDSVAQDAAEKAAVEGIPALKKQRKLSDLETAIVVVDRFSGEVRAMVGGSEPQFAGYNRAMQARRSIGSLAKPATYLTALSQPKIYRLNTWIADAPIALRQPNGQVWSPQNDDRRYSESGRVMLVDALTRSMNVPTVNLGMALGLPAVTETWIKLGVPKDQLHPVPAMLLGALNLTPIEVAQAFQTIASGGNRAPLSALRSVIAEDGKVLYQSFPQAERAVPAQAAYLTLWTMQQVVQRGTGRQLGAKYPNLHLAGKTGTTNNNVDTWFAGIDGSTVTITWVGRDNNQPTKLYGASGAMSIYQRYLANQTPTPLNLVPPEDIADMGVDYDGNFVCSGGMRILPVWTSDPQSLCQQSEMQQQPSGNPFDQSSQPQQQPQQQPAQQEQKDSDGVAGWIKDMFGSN

CCN1CCN(C(=O)NC(C(=O)N[C@H]2Cc3cccc(C(=O)O)c3OB2O)C(O)c2ccc(O)c(O)c2Cl)C(=O)C1=O (stereo partly drawn) [Example 47, (3R)-3-(3-(2-chloro-3,4-dihydroxyphenyl)-2-(4-ethyl-2,3-dioxopiperazine-1-carboxamido)-3-hydroxypropanamido)-2-hydroxy-3,4-dihydro-2H-benzo[e][1,2]oxaborinine-8-carboxylic acid]
EC50 [1]: 10 to 100 µM | EC50 [2, 4]: > 500 µM

CCN1CCN(C(=O)NC(C(=O)N[C@H]2Cc3cccc(C(=O)O)c3OB2O)C(O)c2cccc(O)c2O)C(=O)C1=O (stereo partly drawn) [Example 48, (3R)-3-(3-(2,3-dihydroxyphenyl)-2-(4-ethyl-2,3-dioxopiperazine-1-carboxamido)-3-hydroxypropanamido)-2-hydroxy-3,4-dihydro-2H-benzo[e][1,2]oxaborinine-8-carboxylic acid]
EC50 [1]: < 10 µM | EC50 [2, 4]: > 500 µM

CCN1CCN(C(=O)NC(C(=O)N[C@H]2Cc3cccc(C(=O)O)c3OB2O)c2cnn(C)c2)C(=O)C1=O (stereo partly drawn) [Example 60, (3R)-3-(2-(4-ethyl-2,3-dioxopiperazine-1-carboxamido)-2-(1-methyl-1H-pyrazol-4-yl)acetamido)-2-hydroxy-3,4-dihydro-2H-benzo[e][1,2]oxaborinine-8-carboxylic acid]
EC50 [1]: 10 to 100 µM | EC50 [2]: 30 to 500 µM | MIC [3]: 32 to 64 mg/L (≈ 62.5 to 125 µM)

CCN1CCN(C(=O)N[C@H](C(=O)N[C@H]2Cc3cccc(C(=O)O)c3OB2O)C2(CO)CC2)C(=O)C1=O [Example 63, (R)-3-((S)-2-(4-ethyl-2,3-dioxopiperazine-1-carboxamido)-2-(1-(hydroxymethyl)cyclopropyl)acetamido)-2-hydroxy-3,4-dihydro-2H-benzo[e][1,2]oxaborinine-8-carboxylic acid]
EC50 [1]: < 10 µM | EC50 [2, 4]: > 500 µM | MIC [3]: 128 to 256 mg/L (≈ 255 to 510 µM)

CCN1CCN(C(=O)NC(C(=O)N[C@H]2Cc3cccc(C(=O)O)c3OB2O)c2ccc(CCN)cc2)C(=O)C1=O (stereo partly drawn) [Example 64, (3R)-3-(2-(4-(2-aminoethyl)phenyl)-2-(4-ethyl-2,3-dioxopiperazine-1-carboxamido)acetamido)-2-hydroxy-3,4-dihydro-2H-benzo[e][1,2]oxaborinine-8-carboxylic acid]
EC50 [1]: 10 to 100 µM | EC50 [2, 4]: > 500 µM | MIC [3]: 128 to 256 mg/L (≈ 232 to 464 µM)

CCN1CCN(C(=O)NC(C(=O)N[C@H]2Cc3cccc(C(=O)O)c3OB2O)c2ccc(O)nc2Cl)C(=O)C1=O (stereo partly drawn) [Example 67, (3R)-3-(2-(2-chloro-6-hydroxypyridin-3-yl)-2-(4-ethyl-2,3-dioxopiperazine-1-carboxamido)acetamido)-2-hydroxy-3,4-dihydro-2H-benzo[e][1,2]oxaborinine-8-carboxylic acid]
EC50 [1]: 10 to 100 µM | EC50 [2]: 30 to 500 µM | MIC [3]: 128 to 256 mg/L (≈ 229 to 457 µM)

CCN1CCN(C(=O)NC(CNS(N)(=O)=O)C(=O)N[C@H]2Cc3cccc(C(=O)O)c3OB2O)C(=O)C1=O (stereo partly drawn) [Example 68, (3R)-3-(2-(4-ethyl-2,3-dioxopiperazine-1-carboxamido)-3-(sulfamoylamino)propanamido)-2-hydroxy-3,4-dihydro-2H-benzo[e][1,2]oxaborinine-8-carboxylic acid]
EC50 [1]: < 10 µM | EC50 [2, 4]: > 500 µM | MIC [3]: 32 to 64 mg/L (≈ 59.2 to 118 µM)

CCN1CCN(C(=O)NC(CNC(C)=O)C(=O)N[C@H]2Cc3cccc(C(=O)O)c3OB2O)C(=O)C1=O (stereo partly drawn) [Example 69, (3R)-3-(3-acetamido-2-(4-ethyl-2,3-dioxopiperazine-1-carboxamido)propanamido)-2-hydroxy-3,4-dihydro-2H-benzo[e][1,2]oxaborinine-8-carboxylic acid]
EC50 [1]: < 10 µM | EC50 [2, 4]: > 500 µM | MIC [3]: 128 to 256 mg/L (≈ 254 to 509 µM)

CCN1CCN(C(=O)NC(C(=O)N[C@H]2Cc3cccc(C(=O)O)c3OB2O)C2CCN(CC(=O)O)CC2)C(=O)C1=O (stereo partly drawn) [Example 72, (3R)-3-(2-(1-(carboxymethyl)piperidin-4-yl)-2-(4-ethyl-2,3-dioxopiperazine-1-carboxamido)acetamido)-2-hydroxy-3,4-dihydro-2H-benzo[e][1,2]oxaborinine-8-carboxylic acid, trifluoroacetic acid salt]
EC50 [1]: < 10 µM | EC50 [2]: 30 to 500 µM | MIC [3]: 128 to 256 mg/L

CCN1CCN(C(=O)N[C@H](CNCC(=O)O)C(=O)N[C@H]2Cc3cccc(C(=O)O)c3OB2O)C(=O)C1=O [Example 73, (R)-3-((R)-3-((carboxymethyl)amino)-2-(4-ethyl-2,3-dioxopiperazine-1-carbox-amido)propanamido)-2-hydroxy-3,4-dihydro-2H-benzo[e][1,2]oxaborinine-8-carboxylic acid, trifluoroacetic acid salt]
EC50 [1]: > 100 µM | EC50 [2, 4]: > 500 µM | MIC [3]: 128 to 256 mg/L

CCN1CCN(C(=O)NC(C(=O)N[C@H]2Cc3cccc(C(=O)O)c3OB2O)c2ccc(OCCO)cc2)C(=O)C1=O (stereo partly drawn) [Example 74, (3R)-3-(2-(4-ethyl-2,3-dioxopiperazine-1-carboxamido)-2-(4-(2-hydroxyethoxy)phenyl)acetamido)-2-hydroxy-3,4-dihydro-2H-benzo[e][1,2]oxaborinine-8-carboxylic acid]
EC50 [1]: > 100 µM | EC50 [2]: 30 to 500 µM | MIC [3]: 128 to 256 mg/L (≈ 225 to 450 µM)

CCN1CCN(C(=O)NC(C(=O)N[C@H]2Cc3cccc(C(=O)O)c3OB2O)C2CCN(S(N)(=O)=O)CC2)C(=O)C1=O (stereo partly drawn) [Example 77, (3R)-3-(2-(4-ethyl-2,3-dioxopiperazine-1-carboxamido)-2-(1-sulfamoylpiperidin-4-yl)acetamido)-2-hydroxy-3,4-dihydro-2H-benzo[e][1,2]oxaborinine-8-carboxylic acid]
EC50 [1]: < 10 µM | EC50 [2]: 30 to 500 µM | MIC [3]: 128 to 256 mg/L (≈ 215 to 431 µM)

CCN1CCN(C(=O)NC(C(=O)N[C@H]2Cc3cccc(C(=O)O)c3OB2O)C2CN(S(N)(=O)=O)C2)C(=O)C1=O (stereo partly drawn) [Example 78, (3R)-3-(2-(4-ethyl-2,3-dioxopiperazine-1-carboxamido)-2-(1-sulfamoylazetidin-3-yl)acetamido)-2-hydroxy-3,4-dihydro-2H-benzo[e][1,2]oxaborinine-8-carboxylic acid]
EC50 [1]: > 100 µM | MIC [3]: 128 to 256 mg/L (≈ 226 to 452 µM)

CCN1CCN(C(=O)N[C@@H](CNS(C)(=O)=O)C(=O)N[C@H]2Cc3cccc(C(=O)O)c3OB2O)C(=O)C1=O [Example 84, (R)-3-((S)-2-(4-ethyl-2,3-dioxopiperazine-1-carboxamido)-3-(methylsulfonamido)propanamido)-2-hydroxy-3,4-dihydro-2H-benzo[e][1,2]oxaborinine-8-carboxylic acid]
EC50 [1]: < 10 µM | EC50 [2]: 30 to 500 µM | MIC [3]: 128 to 256 mg/L (≈ 237 to 475 µM)

CCN1CCN(C(=O)NC(C(=O)N[C@H]2Cc3cccc(C(=O)O)c3OB2O)C2CCS(=O)(=O)C2)C(=O)C1=O (stereo partly drawn) [Example 123, (3R)-3-(2-(1,1-dioxidotetrahydrothiophen-3-yl)-2-(4-ethyl-2,3-dioxopiperazine-1-carboxamido)acetamido)-2-hydroxy-3,4-dihydro-2H-benzo[e][1,2]oxaborinine-8-carboxylic acid]
EC50 [1]: > 100 µM | EC50 [2, 4]: > 500 µM

CCN1CCN(C(=O)NC(C(=O)N[C@H]2Cc3cccc(C(=O)O)c3OB2O)c2ccc(C)cn2)C(=O)C1=O (stereo partly drawn) [Example 127, (3R)-3-(2-(4-ethyl-2,3-dioxopiperazine-1-carboxamido)-2-(5-methylpyridin-2-yl)acetamido)-2-hydroxy-3,4-dihydro-2H-benzo[e][1,2]oxaborinine-8-carboxylic acid]
EC50 [1]: > 100 µM | EC50 [2, 4]: > 500 µM

CCN1CCN(C(=O)NC(C(=O)N[C@H]2Cc3cccc(C(=O)O)c3OB2O)C(Cl)CCCO)C(=O)C1=O (stereo partly drawn) [Example 129, (3R)-3-(3-chloro-2-(4-ethyl-2,3-dioxopiperazine-1-carboxamido)-6-hydroxyhexanamido)-2-hydroxy-3,4-dihydro-2H-benzo[e][1,2]oxaborinine-8-carboxylic acid]
EC50 [1]: > 100 µM | EC50 [2, 4]: > 500 µM

CCN1CCN(C(=O)NC(C(=O)N[C@H]2Cc3cccc(C(=O)O)c3OB2O)c2ccc(N)cn2)C(=O)C1=O (stereo partly drawn) [Example 132, (3R)-3-(2-(5-aminopyridin-2-yl)-2-(4-ethyl-2,3-dioxopiperazine-1-carboxamido)acetamido)-2-hydroxy-3,4-dihydro-2H-benzo[e][1,2]oxaborinine-8-carboxylic acid]
EC50 [1]: 10 to 100 µM | EC50 [2, 4]: < 30 µM
